Results from US20250136553A1, “ACYLSULFONAMIDE KAT6A INHIBITORS” (Olema Pharmaceuticals, Inc., priority 2023, published 2025).

target: human-KAT6A (MYST domain 507-778 aa) (Homo sapiens (Human), UniProt Q92794); test: KAT6A biochemical assay (TR-FRET); conditions: @ 1 μM; reported where IC50 could not be determined; read-out: Percent inhibition at specific concentration (KAT6A)
Summary of the method: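 KAT6A MYST domain preincubated with compound 30 min at 25° C, then reacted 60 min at 25° C with 200 nM biotin-H4 peptide and 600 nM acetyl-CoA (final). Europium anti-acetyl-lysine/streptavidin-APC TR-FRET read (Ex 340, Em 615/665 nm); % inhibition from 665/615 ratio, IC50 by sigmoidal fit.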

Chain of human-KAT6A (MYST domain 507-778 aa) (Q92794 507-778): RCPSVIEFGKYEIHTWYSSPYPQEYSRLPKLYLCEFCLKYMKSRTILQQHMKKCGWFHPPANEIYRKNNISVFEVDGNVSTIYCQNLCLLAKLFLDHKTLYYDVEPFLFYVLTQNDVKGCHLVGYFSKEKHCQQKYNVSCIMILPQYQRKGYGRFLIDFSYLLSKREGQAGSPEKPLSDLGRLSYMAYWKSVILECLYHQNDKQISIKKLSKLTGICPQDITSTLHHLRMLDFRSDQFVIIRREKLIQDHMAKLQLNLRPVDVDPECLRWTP

Compound | inhibition at 1 µM [%]
CN=S(=O)(NC(=O)c1ccc(Cn2cccn2)c(OC)c1)c1c(OC)cccc1OC (centres unmarked) [Compound 292, 4-((1H-pyrazol-1-yl)methyl)-N-((2,6-dimethoxyphenyl)(methylamino)(oxo)-16-sulfaneylidene)-3-methoxybenzamide] | 47
COc1nc(C(=O)N[S@](=N)(=O)c2ccccc2F)ccc1Cn1cccn1 [Compound 307b, (S)-5-((1H-pyrazol-1-yl)methyl)-N-(2-fluorophenylsulfonimidoyl)-6-methoxypicolinamide] | 46

same assay, conditions: TR-FRET; histone H4 peptide 200 nM, acetyl-CoA 600 nM; read-out: KAT6A IC50

Compound | IC50 [nM]
COc1ccc(Cl)c(OC)c1[S@](=N)(=O)NC(=O)c1ccc(Cn2cccn2)c(OC)n1 [Compound 293a, (R)-5-((1H-pyrazol-1-yl)methyl)-N-(3-chloro-2,6-dimethoxyphenylsulfonimidoyl)-6-methoxypicolinamide] | 374
COc1ccc(Cl)c(OC)c1[S@@](=N)(=O)NC(=O)c1ccc(Cn2cccn2)c(OC)n1 [Compound 293b, (S)-5-((1H-pyrazol-1-yl)methyl)-N-(3-chloro-2,6-dimethoxyphenylsulfonimidoyl)-6-methoxypicolinamide] | 16
CCOc1cccc(OC)c1[S@](=N)(=O)NC(=O)c1ccc(Cn2cccn2)c(OC)n1 [Compound 294a, (R)-5-((1H-pyrazol-1-yl)methyl)-N-(2-ethoxy-6-methoxyphenylsulfonimidoyl)-6-methoxypicolinamide] | 271
CCOc1cccc(OC)c1[S@@](=N)(=O)NC(=O)c1ccc(Cn2cccn2)c(OC)n1 [Compound 294b, (S)-5-((1H-pyrazol-1-yl)methyl)-N-(2-ethoxy-6-methoxyphenylsulfonimidoyl)-6-methoxypicolinamide] | 22
COc1cc(C(=O)N[S@@](=N)(=O)c2c(OC)cccc2OC)ccc1Cn1cccn1 [Compound 295a, (R)-4-((1H-pyrazol-1-yl)methyl)-N-(2,6-dimethoxyphenylsulfonimidoyl)-3-methoxybenzamide] | 16
COc1cc(C(=O)N[S@](=N)(=O)c2c(OC)cccc2OC)ccc1Cn1cccn1 [Compound 295b, (S)-4-((1H-pyrazol-1-yl)methyl)-N-(2,6-dimethoxyphenylsulfonimidoyl)-3-methoxybenzamide] | 271
COc1cc(OC)c([S@](=N)(=O)NC(=O)c2ccc(Cn3cccn3)c(OC)n2)c(OC)c1 [Compound 296a, (R)-5-((1H-pyrazol-1-yl)methyl)-6-methoxy-N-(2,4,6-trimethoxyphenylsulfonimidoyl)picolinamide] | 16
COc1cc(OC)c([S@@](=N)(=O)NC(=O)c2ccc(Cn3cccn3)c(OC)n2)c(OC)c1 [Compound 296b, (S)-5-((1H-pyrazol-1-yl)methyl)-6-methoxy-N-(2,4,6-trimethoxyphenylsulfonimidoyl)picolinamide] | 677
COc1cccc(OC2CCC2)c1[S@](=N)(=O)NC(=O)c1ccc(Cn2cccn2)c(OC)n1 [Compound 298a, (R)-5-((1H-pyrazol-1-yl)methyl)-N-(2-cyclobutoxy-6-methoxyphenylsulfonimidoyl)-6-methoxypicolinamide] | 23
COc1cccc(OC2CCC2)c1[S@@](=N)(=O)NC(=O)c1ccc(Cn2cccn2)c(OC)n1 [Compound 298b, (S)-5-((1H-pyrazol-1-yl)methyl)-N-(2-cyclobutoxy-6-methoxyphenylsulfonimidoyl)-6-methoxypicolinamide] | 511
COc1cc(OC)c([S@](=N)(=O)NC(=O)c2ccc(Cn3cccn3)c(OC)c2)c(OC)c1 [Compound 299a, (R)-4-((1H-pyrazol-1-yl)methyl)-3-methoxy-N-(2,4,6-trimethoxyphenylsulfonimidoyl)benzamide] | 15
COc1cc(OC)c([S@@](=N)(=O)NC(=O)c2ccc(Cn3cccn3)c(OC)c2)c(OC)c1 [Compound 299b, (S)-4-((1H-pyrazol-1-yl)methyl)-3-methoxy-N-(2,4,6-trimethoxyphenylsulfonimidoyl)benzamide] | 226
COc1cccc(OC)c1[S@](=N)(=O)NC(=O)c1ccc(Cn2cccn2)c(OC(F)(F)F)c1 [Compound 300a, (R)-4-((1H-pyrazol-1-yl)methyl)-N-(2,6-dimethoxyphenylsulfonimidoyl)-3-(trifluoromethoxy)benzamide] | 125
COc1cccc(OC)c1[S@@](=N)(=O)NC(=O)c1ccc(Cn2cccn2)c(OC(F)(F)F)c1 [Compound 300b, (S)-4-((1H-pyrazol-1-yl)methyl)-N-(2,6-dimethoxyphenylsulfonimidoyl)-3-(trifluoromethoxy)benzamide] | 18
COc1ccc(C)c(OC)c1[S@](=N)(=O)NC(=O)c1ccc(Cn2cccn2)c(OC)n1 [Compound 301a, (R)-5-((1H-pyrazol-1-yl)methyl)-N-(2,6-dimethoxy-3-methylphenylsulfonimidoyl)-6-methoxypicolinamide] | 313
COc1ccc(C)c(OC)c1[S@@](=N)(=O)NC(=O)c1ccc(Cn2cccn2)c(OC)n1 [Compound 301b, (S)-5-((1H-pyrazol-1-yl)methyl)-N-(2,6-dimethoxy-3-methylphenylsulfonimidoyl)-6-methoxypicolinamide] | 17
COc1cc(C(=O)N[S@@](=N)(=O)c2c(OC)ccc(Cl)c2OC)ccc1Cn1cccn1 [Compound 302a, (R)-4-((1H-pyrazol-1-yl)methyl)-N-(3-chloro-2,6-dimethoxyphenylsulfonimidoyl)-3-methoxybenzamide] | 21

Compound | IC50 [nM]
COc1cc(C(=O)N[S@](=N)(=O)c2c(OC)ccc(Cl)c2OC)ccc1Cn1cccn1 [Compound 302b, (S)-4-((1H-pyrazol-1-yl)methyl)-N-(3-chloro-2,6-dimethoxyphenylsulfonimidoyl)-3-methoxybenzamide] | 304
COc1nc(C(=O)N[S@@](=N)(=O)c2cccc3c2OCC3)ccc1Cn1cccn1 [Compound 303a, (R)-5-((1H-pyrazol-1-yl)methyl)-N-(2,3-dihydrobenzofuran-7-sulfonimidoyl)-6-methoxypicolinamide] | 26
COc1nc(C(=O)N[S@](=N)(=O)c2cccc3c2OCC3)ccc1Cn1cccn1 [Compound 303b, (S)-5-((1H-pyrazol-1-yl)methyl)-N-(2,3-dihydrobenzofuran-7-sulfonimidoyl)-6-methoxypicolinamide] | 108
COc1cc(C(=O)N[S@@](=N)(=O)c2c(OC)ccc(C)c2OC)ccc1Cn1cccn1 [Compound 304a, (R)-4-((1H-pyrazol-1-yl)methyl)-N-(2,6-dimethoxy-3-methylphenylsulfonimidoyl)-3-methoxybenzamide] | 18
COc1cc(C(=O)N[S@](=N)(=O)c2c(OC)ccc(C)c2OC)ccc1Cn1cccn1 [Compound 304b, (S)-4-((1H-pyrazol-1-yl)methyl)-N-(2,6-dimethoxy-3-methylphenylsulfonimidoyl)-3-methoxybenzamide] | 130
COc1cccc(F)c1[S@](=N)(=O)NC(=O)c1ccc(Cn2cccn2)c(OC)n1 [Compound 305a, (R)-5-((1H-pyrazol-1-yl)methyl)-N-(2-fluoro-6-methoxyphenylsulfonimidoyl)-6-methoxypicolinamide] | 15
COc1cccc(F)c1[S@@](=N)(=O)NC(=O)c1ccc(Cn2cccn2)c(OC)n1 [Compound 305b, (S)-5-((1H-pyrazol-1-yl)methyl)-N-(2-fluoro-6-methoxyphenylsulfonimidoyl)-6-methoxypicolinamide] | 318
COc1cc(C)cc(OC)c1[S@](=N)(=O)NC(=O)c1ccc(Cn2cccn2)c(OC)n1 [Compound 306a, (R)-5-((1H-pyrazol-1-yl)methyl)-N-(2,6-dimethoxy-4-methylphenylsulfonimidoyl)-6-methoxypicolinamide] | 12
COc1cc(C)cc(OC)c1[S@@](=N)(=O)NC(=O)c1ccc(Cn2cccn2)c(OC)n1 [Compound 306b, (S)-5-((1H-pyrazol-1-yl)methyl)-N-(2,6-dimethoxy-4-methylphenylsulfonimidoyl)-6-methoxypicolinamide] | 280
COc1nc(C(=O)N[S@@](=N)(=O)c2ccccc2F)ccc1Cn1cccn1 [Compound 307a, (R)-5-((1H-pyrazol-1-yl)methyl)-N-(2-fluorophenylsulfonimidoyl)-6-methoxypicolinamide] | 108
COc1nc(C(=O)N[S@@](=N)(=O)c2c(F)cccc2F)ccc1Cn1cccn1 [Compound 308a, (R)-5-((1H-pyrazol-1-yl)methyl)-N-(2,6-difluorophenylsulfonimidoyl)-6-methoxypicolinamide] | 1580
COc1nc(C(=O)N[S@](=N)(=O)c2c(F)cccc2F)ccc1Cn1cccn1 [Compound 308b, (S)-5-((1H-pyrazol-1-yl)methyl)-N-(2,6-difluorophenylsulfonimidoyl)-6-methoxypicolinamide] | 49
COc1cc(C(=O)NS(=O)(=O)c2cc(Cl)cc3c2OCC3)ccc1Cn1cccn1 [Compound 309, 4-((1H-pyrazol-1-yl)methyl)-N-((5-chloro-2,3-dihydrobenzofuran-7-yl)sulfonyl)-3-methoxybenzamide] | 17
COc1cc(C(=O)NS(=O)(=O)c2ccc3c(c2)CCO3)ccc1Cn1cccn1 [Compound 310, 4-((1H-pyrazol-1-yl)methyl)-N-((2,3-dihydrobenzofuran-5-yl)sulfonyl)-3-methoxybenzamide] | 112
COc1ccc(S(=O)(=O)NC(=O)c2ccc(Cn3cccn3)c(OC)c2)cc1Cl [Compound 311, 4-((1H-pyrazol-1-yl)methyl)-N-((3-chloro-4-methoxyphenyl)sulfonyl)-3-methoxybenzamide] | 135
COc1cc(C(=O)NS(=O)(=O)c2ccccc2OC2CC2)ccc1Cn1cccn1 [Compound 313, 4-((1H-pyrazol-1-yl)methyl)-N-((2-cyclopropoxyphenyl)sulfonyl)-3-methoxybenzamide] | 32
